Where two headings read alike, the source gives them in different places.
Experiments:
[1] = pharmacokinetics in CD-1 mice; format: in vivo; details: male, plasma, CD-1 mouse; for Vd: read-out: Vss; for bioavailability: po 10 mg/kg vs iv 2 mg/kg
[2] = pilot toxicity / tolerability study in CD-1 mice; details: po 50 mg/kg, QD*5, 5 days observation
[3] = mouse, in vivo, po, 50 mg/kg
[4] = Figure 1, previously reported; cited from earlier work
[5] = Figure 1, previously reported; cited from earlier work; remark: listed apart in the source
[6] = iv 2 mg/kg, observed at t = 5 min

AUC(0-inf) ([1]; iv 2 mg/kg) [ng·h/mL] | Cmax [1, 6] [ng/mL] | Vd ([1]; iv 2 mg/kg) [L/kg] | AUC(0-inf) ([1]; po 10 mg/kg) [ng·h/mL] | Cmax ([1]; po 10 mg/kg) [ng/mL] | bioavailability [1] [%] | SMILES | tolerability [2] | tolerability [3] | RLM [4] [min] | solubility [5] [µg/mL]
1410 | 1960 | 2.2 | 2140 | 1170 | 30 | CN(C)C(=O)N1CCN(C(=O)c2cnc3ccc(F)cc3c2-c2ccc(C3(C#N)CC3)cc2)CC1 [Compound 118] | – | – | – | –
505 | 1500 | 1.2 | 227 | 215 | 9 | N#CC1(c2ccccc2)CCN(c2c(C(=O)N3CCN(C(=O)C4CC4)CC3)cnc3ccc(F)cc23)CC1 [Compound 78] | – | – | – | –
661 | 1800 | 0.72 | 844 | 1110 | 30 | CN(C)C(=O)N1CCN(C(=O)c2cnc3ccc(F)cc3c2N2CCC(C#N)(c3ccccc3)CC2)CC1 [Compound 108] | – | – | – | –
459 | 1100 | 1.39 | 720 | 471 | 31 | CS(=O)(=O)N1CCN(C(=O)c2cnc3ccc(Cl)cc3c2N2CCC(C#N)(c3ccccc3)CC2)CC1 [Compound 109] | – | – | – | –
– | – | – | – | – | – | CS(=O)(=O)N1CCN(C(=O)c2cnc3ccc(F)cc3c2N2CCC(C#N)(c3ccccc3)CC2)CC1 [Compound 86, 1-(6-Fluoro-3-(4-(methylsulfonyl)piperazine-1-carbonyl)quinolin-4-yl)-4-phenylpiperidine-4-carbonitrile] | no significant weight loss or abnormal clinical signs and no mortality was observed | – | – | –
– | – | – | – | – | – | CS(=O)(=O)N1CCN(C(=O)c2cnc3ccc(F)cc3c2-c2ccc(C3(C#N)CC3)cc2)CC1 [Compound 91, 1-(4-(6-Fluoro-3-(4-(methylsulfonyl)piperazine-1-carbonyl)quinolin-4-yl)phenyl)cyclopropanecarbonitrile] | – | no significant weight loss or abnormal clinical signs and no mortality was observed | – | –
– | – | – | – | – | – | CC(C)CCn1c(CN2CCN(C(=O)C3CC3)CC2)nc2c1c(=O)n(C)c(=O)n2C [Compound 4] | – | – | > 30 | > 62
1130 | – | 1.14 | 2760 | 1470 | 49 | CS(=O)(=O)N1CCN(C(=O)c2cnc3ccc(Cl)cc3c2-c2ccc(C3(C#N)CC3)cc2)CC1 [Compound 119] | – | – | – | –

Reference: paper PMC6004562, “Discovery of Orally Bioavailable, Quinoline-Based Aldehyde Dehydrogenase 1A1 (ALDH1A1) Inhibitors with Potent Cellular Activity” (Journal of Medicinal Chemistry, 2018)
